Test results reported in article PMC11987006 (iScience, 2025).

Assays:
[1] = system: WT N2 animal; assay: salt chemotaxis learning with tyramine/octopamine, WT N2; format: in vivo, C. elegans; settings: 10 μM TA or OA or both in conditioning solutions or test plate agar
[2] = system: WT N2 animal; assay: salt chemotaxis with tyramine/octopamine, WT N2; format: in vivo, C. elegans; settings: 10 μM TA or OA or both in conditioning solutions or test plate agar

SMILES	effect on SCL (learning index) [1]	effect on salt chemotaxis [2]
NCC(O)c1ccc(O)cc1 (stereo not shown) [OA, octopamine]	no obvious impact	no obvious impact
NCCc1ccc(O)cc1 [TA, tyramine]	no obvious impact	no obvious impact
